Measured values from patent US8912120B2, “Herbicidal compositions comprising 4-amino-3-chloro-5-fluoro-6-(4-chloro-2-fluoro-3-methoxyphenyl) pyridine-2-carboxylic acid or a derivative thereof and synthetic auxin herbicides” (Dow AgroSciences, LLC., priority 2012, dated 2014).
Structures can show the parent of a compound that is named as a salt. Where two headings read alike, the source gives them in different places.

Legend:
[1] = system: ECHOR; assay: Example II: in-water applied herbicidal mixtures, transplanted paddy rice, ECHOR; assay type: in vivo, Echinochloa oryzoides (early watergrass); details: for pest or weed control at 70 g/ha: 70 gae/ha; for pest or weed control at 140 g/ha: 140 gae/ha
Method: (§1) The prepared mud was dispensed in 365 mL aliquots into 16-ounce (oz.) non-perforated plastic pots with a surface area of 86.59 square centimeters (cm^2) leaving a headspace of 3 centimeters (cm) in each pot Mud was allowed to dry overnight prior to planting or transplanting. Rice seeds were planted in Sun Gro MetroMix® 306 planting mixture, which typically has a pH of 6.0 to 6.8 and an organic matter content of about 30 percent, in plastic plug trays. Seedlings at the second or third leaf stage of growth were transplanted into 840 mL of mud contained in 32-oz. non-perforated plastic pots with a surface area of 86.59 cm^2 4 days prior to herbicide application. […] Nutrients were added as Osmocote® (19:6:12, N:P:K^+ minor nutrients) at 2 g per 16-oz. pot and 4 g per 32-oz. pot.
(§2) Applications were made by injecting with a pipetter appropriate amounts of the application solutions, individually and sequentially, into the aqueous layer of the paddy. Control plants were treated in the same manner with the solvent blank. Applications were made so that all treated plant material received the same concentrations of acetone and crop oil concentrate.

[2] = system: LEFCH; assay: Example II: in-water applied herbicidal mixtures, transplanted paddy rice, LEFCH; assay type: in vivo, Leptochloa chinensis (Chinese sprangletop)
Method: as §1, §2

[3] = system: POLCO; assay: Example IV: postemergence foliar-applied herbicidal mixtures, cereal crops, POLCO; assay type: in vivo, Polygonum convolvulus (wild buckwheat); details: alone, foliar, 20-22 days
Method: (§3) Seeds of the desired test plant species were planted in Sun Gro MetroMix 306 planting mixture, which typically has a pH of 6.0 to 6.8 and an organic matter content of about 30 percent, in plastic pots with a surface area of 103.2 square centimeters (cm^2). […] The plants were grown for 7-36 days in a greenhouse with an approximate 14 hour photoperiod which was maintained at about 18° C. during the day and 17° C. during the night.
(§4) Spray solutions of the second cereal herbicide and experimental compound mixtures were prepared by adding the stock solutions to the appropriate amount of dilution solution to form 12 mL spray solution with active ingredients in two- and three-way combinations.

[4] = system: VIOTR; assay: Example IV: postemergence foliar-applied herbicidal mixtures, cereal crops, VIOTR; assay type: in vivo, Viola tricolor (wild pansy); details: alone, 140 gai/ha, foliar, 20-22 days
Method: as §3, §4

[5] = system: BRSNN; assay: Example IV: postemergence foliar-applied herbicidal mixtures, cereal crops, BRSNN; assay type: in vivo, Brassica napus (volunteer canola); details: alone, foliar, 20-22 days
Method: as §3, §4

[6] = system: SCPJU; assay: Example II: in-water applied herbicidal mixtures, transplanted paddy rice, SCPJU; assay type: in vivo, Schoenoplectus juncoides (Japanese bulrush); details: 25 DAA
Method: as §1, §2

[7] = system: ECHCG; assay: Example II: in-water applied herbicidal mixtures, transplanted paddy rice, ECHCG; assay type: in vivo, Echinochloa crus-galli (barnyardgrass)
Method: as §1, §2

[8] = system: AMARE; assay: Example IV: postemergence foliar-applied herbicidal mixtures, weed control in cereal crops in the greenhouse, AMARE; assay type: in vivo, Amaranthus retroflexus (redroot pigweed); details: alone, 20-22 days
Method: as §3, §4

[9] = system: CYPRO; assay: Example II: in-water applied herbicidal mixtures, weed control in transplanted paddy rice (greenhouse), CYPRO; assay type: in vivo, Cyperus rotundus (purple nutsedge)
Method: as §1, §2

[10] = system: CYPIR; assay: Example I: postemergence foliar-applied herbicidal mixtures, direct seeded rice, CYPIR; assay type: in vivo, Cyperus iria (rice flatsedge)
Method: (§6) The soil matrix was contained in plastic pots with a volume of 1 quart and a surface area of 83.6 square centimeters (cm^2). […] The plants were grown for 8-22 days in a greenhouse with an approximate 14 h photoperiod which was maintained at about 29° C. during the day and 26° C. during the night. Nutrients (Peters Excel® 15-5-15 5-Ca 2-Mg and iron chelate) were applied in the irrigation solution as needed and water was added on a regular basis. Supplemental lighting was provided with overhead metal halide 1000-Watt lamps as necessary. The plants were employed for testing when they reached the first through fourth true leaf stage.
(§7) Treatments consisted of the acid or esters of 4-amino-3-chloro-5-fluoro-6-(4-chloro-2-fluoro-3-methoxy-phenyl)pyridine-2-carboxylic acid (Compound A), each formulated as an SC (suspension concentrate), and various herbicidal components alone and in combination. Forms of compound A were applied on an acid equivalent basis.
(§8) For treatments comprised of formulated compounds, measured amounts of compounds were placed individually in 25 mL glass vials and diluted in a volume of 1.25% (v/v) Agri-Dex® crop oil concentrated to obtain 12× stock solutions. […] Application solutions were prepared by adding an appropriate amount of each stock solution (e.g., 1 mL) and diluted to the appropriate final concentrations with the addition of 10 mL of an aqueous mixture of 1.25% (v/v) crop oil concentrate so that the final spray solutions contained 1.25+/−0.05% (v/v) crop oil concentrate.
(§9) All stock solutions and applications solutions were visually inspected for compound compatibility prior to application. Spray solutions were applied to the plant material with an overhead Mandel track sprayer equipped with a 8002E nozzles calibrated to deliver 187 L/ha over an application area of 0.503 m^2 at a spray height of 18 to 20 inches (46 to 50 cm) above average plant canopy height. Control plants were sprayed in the same manner with the solvent blank.
(§10) The treated plants and control plants were placed in a greenhouse as described above and watered by sub-irrigation to prevent wash-off of the test compounds. After approximately 3 weeks, the condition of the test plants as compared with that of the untreated plants was determined visually and scored on a scale of 0 to 100 percent where 0 corresponds to no injury or growth inhibition and 100 corresponds to complete kill.
(§11) Colby's equation was used to determine the herbicidal effects expected from the mixtures (Colby, S. R. 1967. Calculation of the synergistic and antagonistic response of herbicide combinations. Weeds 15:20-22).
(§12) The following equation was used to calculate the expected activity of mixtures containing two active ingredients, A and B: Expected=A+B−(A×B/100)
(§13) A=observed efficacy of active ingredient A at the same concentration as used in the mixture.
(§14) B=observed efficacy of active ingredient B at the same concentration as used in the mixture.

[11] = system: IPOHE; assay: Example I: postemergence foliar-applied herbicidal mixtures, direct seeded rice, IPOHE; assay type: in vivo, Ipomoea hederacea (ivyleaf morningglory)
Method: as §6, §7, §8, §9, §10, §11, §12, §13, §14

[12] = system: LEFCH; assay: Example I: postemergence foliar-applied herbicidal mixtures, direct seeded rice, LEFCH; assay type: in vivo, Leptochloa chinensis (Chinese sprangletop)
Method: as §6, §7, §8, §9, §10, §11, §12, §13, §14

[13] = system: CENMA; assay: Example V: postemergence herbicidal activity of mixtures in forage crops, CENMA; assay type: in vivo, Centaurea maculosa (spotted knapweed); details: alone, foliar, approximately 21 days
Method: as §3, with “Seeds or root cuttings” for “Seeds”, “MetroMix®” for “MetroMix”, “126.6” for “103.2”, “14-60” for “7-36”, “approximately 28°” for “about 18°”, “24°” for “17°”
(§5) Spray solutions of the second herbicide or experimental compound mixtures were prepared by adding the stock solutions to the appropriate amount of dilution solution to form 12 mL spray solution with active ingredients in two-way combinations.

[14] = system: ECHCO; assay: Example I: postemergence foliar-applied herbicidal mixtures, direct seeded rice, ECHCO
Method: as §6, §7, §8, §9, §10, §11, §12, §13, §14

[15] = system: CASOB; assay: Example V: postemergence herbicidal activity of mixtures in forage crops (greenhouse), CASOB; assay type: in vivo, Cassia obtusifolia (sicklepod); details: alone, 50 gae/ha, foliar, approximately 21 days
Method: as §3, with “Seeds or root cuttings” for “Seeds”, “MetroMix®” for “MetroMix”, “126.6” for “103.2”, “14-60” for “7-36”, “approximately 28°” for “about 18°”, “24°” for “17°”
as §5

[16] = system: SONAR; assay: Example V: postemergence herbicidal activity of mixtures in forage crops, SONAR; assay type: in vivo, Sonchus arvensis (field sowthistle); details: alone, foliar, approximately 21 days
Method: as §3, with “Seeds or root cuttings” for “Seeds”, “MetroMix®” for “MetroMix”, “126.6” for “103.2”, “14-60” for “7-36”, “approximately 28°” for “about 18°”, “24°” for “17°”
as §5

[17] = system: DIGSA; assay: Example I: postemergence foliar-applied herbicidal mixtures, direct seeded rice, DIGSA
Method: as §6, §7, §8, §9, §10, §11, §12, §13, §14

[18] = system: CIRAR; assay: Example V: postemergence herbicidal activity of mixtures in forage crops, CIRAR; assay type: in vivo, Cirsium arvense (Canada thistle); details: alone, 70 gae/ha, foliar, approximately 21 days
Method: as §3, with “Seeds or root cuttings” for “Seeds”, “MetroMix®” for “MetroMix”, “126.6” for “103.2”, “14-60” for “7-36”, “approximately 28°” for “about 18°”, “24°” for “17°”
as §5

[19] = system: SCPMA; assay: Example II: in-water applied herbicidal mixtures, transplanted paddy rice, SCPMA; assay type: in vivo; details: 22 DAA
Method: as §1, §2

[20] = system: ECHCG; assay: Example I: postemergence foliar-applied herbicidal mixtures, direct seeded rice, ECHCG
Method: as §6, §7, §8, §9, §10, §11, §12, §13, §14

[21] = 280 gai/ha, in-water application
[22] = Echinochloa oryzoides, 600 h, 25 DAA, read-out: Visual Weed Control (%) Obs
[23] = Echinochloa oryzoides, 528 h, 22 DAA, read-out: Visual Weed Control (%) Obs

`CCCCC(CC)COC(=O)COc1ccc(Cl)cc1C` (centres unmarked) [MCPA EHE, 2-ethylhexyl 2-(4-chloro-2-methylphenoxy)acetate, reference compound] was tested, and the “Visual Weed Control (%) - 19 DAA ECHOR Obs” value [1, 21] was 30%, the “Visual Weed Control (%) Obs” value ([2]; 19 DAA, 280 gai/ha) was 0% and the “Visual Weed Control (%) - 19 DAA LEFCH Obs” value [2, 21] was 0%.
For `Cc1cc(Cl)ccc1OCC(=O)O` [MCPA, 2-(4-chloro-2-methylphenoxy)acetic acid], the “POLCO Ob (observed value)” value ([3]; 140 gai/ha) was 0%, the “VIOTR Ob (observed value)” value [4] was 40% and the “BRSNN Ob (observed value)” value ([5]; 140 gai/ha) was 70%.
`O=C(O)COc1nc(Cl)c(Cl)cc1Cl` [Triclopyr TEA Salt, 2-[(3,5,6-trichloro-2-pyridinyl)oxy]acetic acid compound with N,N-diethylethanamine, reference compound] showed a pest or weed control at 280 g/ha ([1]; Echinochloa oryzoides, 456 h, 19 DAA, 280 gae/ha, read-out: Visual Weed Control (%) Obs) of 35%, a pest or weed control at 70 g/ha [1, 22] of 0% and a pest or weed control at 140 g/ha [1, 22] of 0%. The “Visual Weed Control (%) Obs” value ([6]; 70 gae/ha) was 20%, the “Visual Weed Control (%) Obs” value ([6]; 140 gae/ha) was 30% and the “Visual Weed Control (%) Obs” value ([2]; 25 DAA, 70 gae/ha) was 0%. For the same molecule, the “Visual Weed Control (%) Obs” value ([2]; 25 DAA, 140 gae/ha) was 0%, the “Visual Weed Control (%) Obs” value ([7]; 25 DAA, 70 gae/ha) was 0% and the “Visual Weed Control (%) Obs” value ([7]; 25 DAA, 140 gae/ha) was 0%.
For `O=C(O)c1nc(Cl)ccc1Cl` [Clopyralid, 3,6-dichloro-2-pyridinecarboxylic acid], the “AMARE Ob (observed value)” value ([8]; 50 gai/ha) was 17%.
For `COc1c(Cl)ccc(Cl)c1C(=O)O` [Dicamba, 3,6-dichloro-2-methoxybenzoic acid], the “POLCO Ob (observed value)” value ([3]; 35 gai/ha) was 13%, the “AMARE Ob (observed value)” value ([8]; 35 gai/ha) was 53% and the “BRSNN Ob (observed value)” value ([5]; 35 gai/ha) was 8%.
For `COC(=O)c1nc(-c2ccc(Cl)c(OC)c2F)cc(N)c1Cl` [Halauxifen-Methyl Ester, methyl 4-amino-3-chloro-6-(4-chloro-2-fluoro-3-methoxyphenyl)picolinate, reference compound], the “Visual Weed Control (%) Obs” value ([9]; 20 DAA, 4.38 gae/ha) was 70%, the “Visual Weed Control (%) Obs” value ([9]; 20 DAA, 8.75 gae/ha) was 50% and the pest or weed control at 4.38 g/ha ([1]; Echinochloa oryzoides, 480 h, 20 DAA, 4.38 gae/ha, read-out: Visual Weed Control (%) Obs) was 25%. The pest or weed control at 8.75 g/ha ([1]; Echinochloa oryzoides, 480 h, 20 DAA, 8.75 gae/ha, read-out: Visual Weed Control (%) Obs) was 35%, the “Visual Weed Control (%) - 20 DAA CYPIR Obs” value ([10]; 2.19 gae/ha) was 25% and the “Visual Weed Control (%) - 20 DAA CYPIR Obs” value ([10]; 4.38 gae/ha) was 70%. For the same molecule, the “Visual Weed Control (%) - 20 DAA IPOHE Obs” value ([11]; 2.19 gae/ha) was 0%, the “Visual Weed Control (%) - 20 DAA IPOHE Obs” value ([11]; 4.38 gae/ha) was 0% and the “Visual Weed Control (%) - 20 DAA LEFCH Obs” value ([12]; 2.19 gae/ha) was 0%. For the same molecule, the “Visual Weed Control (%) - 20 DAA LEFCH Obs” value ([12]; 4.38 gae/ha) was 10%, the “Visual Weed Control (%) Obs” value ([7]; 20 DAA, 4.38 gae/ha) was 50% and the “Visual Weed Control (%) Obs” value ([7]; 20 DAA, 8.75 gae/ha) was 60%.
In the case of `CCCCOCCOC(=O)COc1nc(Cl)c(Cl)cc1Cl` [Triclopyr Butotyl Ester, 2-butoxyethyl 2-[(3,5,6-trichloro-2-pyridinyl)oxy]acetate, reference compound], the “Visual Weed Control (%) Obs” value ([9]; 22 DAA, 70 gae/ha) was 0%, the “Visual Weed Control (%) Obs” value ([9]; 22 DAA, 140 gae/ha) was 40% and the “CENMA Obs (observed value)” value ([13]; 35 gae/ha) was 30%. The “CENMA Obs (observed value)” value ([13]; 70 gae/ha) was 45%, the “Visual Weed Control (%) - 23 DAA ECHCO Obs” value ([14]; 70 gae/ha) was 0% and the “Visual Weed Control (%) - 23 DAA ECHCO Obs” value ([14]; 140 gae/ha) was 0%. The “CASOB Obs (observed value)” value [15] was 18%, the pest or weed control at 70 g/ha [1, 23] was 0% and the pest or weed control at 140 g/ha [1, 23] was 0%. For the same molecule, the “SONAR Obs (observed value)” value ([16]; 35 gae/ha) was 60%, the “SONAR Obs (observed value)” value ([16]; 70 gae/ha) was 60% and the “Visual Weed Control (%) - 23 DAA DIGSA Obs” value ([17]; 35 gae/ha) was 0%. For the same molecule, the “Visual Weed Control (%) - 23 DAA DIGSA Obs” value ([17]; 70 gae/ha) was 0%, the “Visual Weed Control (%) - 23 DAA DIGSA Obs” value ([17]; 140 gae/ha) was 0% and the “CIRAR Obs (observed value)” value [18] was 40%. The “Visual Weed Control (%) Obs” value ([19]; 70 gae/ha) was 50%, the “Visual Weed Control (%) Obs” value ([19]; 140 gae/ha) was 60% and the “Visual Weed Control (%) Obs” value ([7]; 22 DAA, 70 gae/ha) was 0%. For the same molecule, the “Visual Weed Control (%) Obs” value ([7]; 22 DAA, 140 gae/ha) was 0%, the “Visual Weed Control (%) - 23 DAA ECHCG Obs” value ([20]; 35 gae/ha) was 0% and the “Visual Weed Control (%) - 23 DAA ECHCG Obs” value ([20]; 70 gae/ha) was 0%. For the same molecule, the “Visual Weed Control (%) - 23 DAA ECHCG Obs” value ([20]; 140 gae/ha) was 15%.
